Patent US20070060617A1, “2-Methoxy-5(5-trifluoromethyl-tetrazol-1-yl-benzyl)-2s-phenyl-piperdin-3s-yl)-amine for the treatment of social phobia” (priority 2004, published 2007)
Structures can show the parent of a compound that is named as a salt.

Test system: patients suffering from social phobia (Social Anxiety Disorder)
Experiment: double-blind, placebo-controlled study in patients suffering from social phobia (self-report questionnaires, state anxiety measures, verbal performance, PET)
Assay type: in vivo, human
Details: NK1-antagonist group, daily oral dose of 5 mg, administered four weeks
Source text: The first study was a double-blind, placebo-controlled study of the effect of [2-methoxy-5-(5-trifluoromethyl-tetrazol-1-yl-benzyl)]-(2-phenyl-piperidin-3-yl)-amine dihydrochloride in patients suffering from social phobia (otherwise known as Social Anxiety Disorder). Thirty six patients aged between 19 and 48 meeting the DSM-IV criteria for social phobia (as set out in Diagnostic and Statistical Manual of Mental Disorders, 4th Edition, published by the American Psychiatric Association) were selected. […] The effect of [2-methoxy-5(5-trifluoromethyl-tetrazol-1-yl-benzyl)]-(2-phenyl-piperidin-3-yl)-amine dihydrochloride on anxiety symptoms and brain activity in patients diagnosed with social phobia was evaluated using self-report questionnaires (the Social Phobia Scale (SPS), the Social Interaction Anxiety Scale (SIAS), the Personal Report on Confidence as a Speaker (PRCS), the Social Phobia Screening Questionnaire (SPSQ), the Sheehan Disability Inventory (SDI), self-report versions of the Liebowitz Social Anxiety Scale (LSAS-SR) and the Global Assessment of Functioning (GAF) scale), state anxiety measures (the Speilberger state-anxiety inventory (STAI-S), subjective ratings of fear and distress on 0-100 (min-max) scales and heart rate), verbal performance (comparing the number of spoken syllables during the first ten seconds of each videotaped speech) and PET assessments.

SMILES: COc1ccc(-n2nnnc2C(F)(F)F)cc1CN[C@H]1CCCN[C@H]1c1ccccc1 [[2-methoxy-5-(5-trifluoromethyl-tetrazol-1-yl-benzyl)]-(2-phenyl-piperidin-3-yl)-amine dihydrochloride]
- effect compared with placebo: generally superior to placebo
- improvement of patients with social phobia after short-term treatment: significantly improved
